Test results published in patent US7071218B2, “N-substituted heterocycles for the treatment of hypercholesteremia, dyslipidemia and other metabolic disorders; cancer, and other diseases” (Incyte San Diego Incorporated, priority 2001, dated 2006).

Experiments:
[1] = test system: PC-3 prostate cancer cells; assay: MTT anti-cancer assay, PC-3 prostate cancer cells; format: cell-based, human; details: PC-3, 6 days
Text: (§1) The anti-cancer activity of the compounds of the invention herein have been tested in in vitro assays using a microculture assay with 3-(4,5-dimethylthiazol-2-yl)-2,5-diphenyltetrazolium bromide (“MTT”) a test well known to those skilled in the art. This assay has an advantage over in vivo assay in that results are obtained within a week as opposed to several months. The assay can be carried out in 96-well microtiter plates. The MTT assay is based on the production of a dark blue formazan product by dehydrogenase in the mitochondria of live tumor cells after exposure to drug for 6 days [M. C. […] Thus, only live cells are stained and can be measured at 595 nm. […]
(§2) Treatment: Before commencing drug treatment, cells were replenished with media containing 0.5% FCS. […] As an end point, the amount of surviving cells (Live cells) was measured using a standard […] assay (MTT based), and calculated as percentage of cells treated with vehicle (DMSO) alone (% control).
(§3) MTT assay: The assay is based on the cleavage of the yellow tetrazolium salt MTT to purple formazan crystals by dehydrogenase activity in active mitochondria. […] The formazan crystals formed are solubilized and the resulting colored solution is quantified using a scanning multiwell spectrophotometer. […]

[2] = test system: human cancer cell lines (A549, MDA-MB-468, PC-3, Bx-PC3); assay: MTT anti-cancer assay, the other cancer cell lines of the panel; format: cell-based; details: cell lines other than PC-3 (A549, MDA-MB-468, Bx-PC3), compared to PC-3
Text: as §1, §2, §3

With `COc1cccc(/C=C2\SC(=S)N(CC(=O)O)C2=O)c1-c1cc2c(cc1C)C(C)(C)CCC2(C)C` [Compound 9, {5-[3-Methoxy-2-(3,5,5,8,8-pentamethyl-5,6,7,8-tetrahydro-naphthalen-2-yl)-benzylidene]4-oxo-2-thioxo-thiazolidin-3-yl}-acetic acid] the anticancer effect [1] was “very potent anticancer effect” and the anticancer effect [2] was “less pronounced”.
